Several values for one entry are separate records, joined by “and”; a condition that tells them apart may be missing. Equal values may be shown once. Read-outs that look alike come from different tables or passages of the source. Marks after values point to notes of the source that are not given here.
How the values were obtained:
[1] = heart failure; cited from earlier work
Na^+-K^+-ATPase = test: Enzymatic assay of adenosine 5′-triphosphatase; assay type: biochemical; details: 20 μM
Description: Enzymatic assay of adenosine 5′-triphosphatase. The enzymatic assay of ATPase (adenosine 5′-triphosphatase, EC 3.6.1.3) followed the Sigma Prod. […] [P] was determined by the Taussky-Shorr method.

cyclin D1 promoter = test: Cyclin D1 reporter assay (luciferase); assay type: cell-based, human; details: MDA-MB-453, 24 h
Description: (§1) The cyclin D1 promoter luciferase reporter plasmid, 1745CD1LUC, was prepared by Dr. R. Pestell (Albert Einstein Cancer Center, New York, N.Y.). The method used for transient transfection reporter assays was previously described (Soh et al., Novel roles of specific isoforms of protein kinase C in activation of the c-fos serum response element. Molecular and Cellular Biology, 19:1313-24, 1999). Using lipofectin, triplicate samples of MDA-MB-453 breast cancer cells (1×10^5 cells in 35-mm plates) were co-transfected using DNA of the indicated reporter plasmid (1 μg) and the β-gal plasmid as an internal control (10 μg of the pCMV-b-gal plasmid) in opti-MEM 1 medium (Life Technologies, Inc.). After 24 h, the medium was replaced with serum-free medium containing the indicated concentrations of actein. After 24 h, cells were harvested, and luciferase activity was determined with the luciferase assay system (Promega Corp. Madison, Wis.); β-gal activities were determined with the β-gal enzyme assay system (Promega). Luciferase activities were normalized to β-gal activities, to correct for differences in transfection efficiency.

MCF7 cells = test: Cell-cycle analysis by DNA flow cytometry; assay type: cell-based, human
Description: Synchrony: To synchronize the cells, 3×10^5 cells were plated onto 10 cm dishes and grown for 2 days in DMEM supplemented with 10% fetal bovine serum.
After incubation for 1-3 days, the supernatant was collected, and the cells were trypsinized, collected, and washed with phosphate buffered saline (PBS) containing 5% FBS. Cell pellets were re-suspended in 1 ml of PBS plus 5% FBS. Thereafter, 5 ml of 70% ethanol were added drop-wise, while vortexing the tube, and the mixture was stored at 4° C. Cells were centrifuged, washed with PBS plus 5% FBS, and re-suspended in 400 μl of propidium iodide (0.1 mg/ml) (Sigma Chemical Co.). 400 μl (2 mg/ml) of RNase (Sigma Chemical Co.) were added, and the cells were incubated in the dark at room temperature for 30 min.

[2] = test system: cyclin D1 mRNA in MCF7 cells; test: RT-PCR of mRNA; assay type: cell-based, human
Description: FIG. 13 illustrates the effects of actein on cyclin D1 mRNA in MCF7 cells (RT-PCR). MCF7 cells were treated with DMSO or actein for 3, 10, or 24 h. RNA was isolated and analyzed by RT-PCR, using primers for cyclin D1 and actin (control). The staining intensities of the visualized blots were quantified using NIH image software. The relative band intensities were determined by comparing treated samples with untreated controls. These values were then normalized (fold), using β-actin as an internal control.

[3] = test system: rat liver gene expression; test: AffyLimma microarray analysis of rat liver, actein; assay type: in vivo, Sprague-Dawley rats; details: for number of genes significantly altered (B>0): actein; for Fold-change relative to control, BZRP, Microarray / Fold-change relative to control, CCND1, Microarray / Fold-change relative to control, CYP7A1, Microarray / Fold-change relative to control, HMGCR, Microarray / Fold-change relative to control, HMGCS1, Microarray / Fold-change relative to control, HSD17B7, Microarray / Fold-change relative to control, ID3, Microarray / Fold-change relative to control, NQO1, Microarray / Fold-change relative to control, S100A9, Microarray: rat liver, 35.7 mg/kg
NF-κB promoter = test: NF-κB reporter assay (luciferase); assay type: cell-based, human; details: MDA-MB-453, 24 h
Description: as §1
NF-κB reporter assay. The NE-κB promoter luciferase reporter plasmid was from Dr. Jae Won Soh. The method for transient transfection reporter assays was as previously described.

MDA-MB-453 cells = test: Combination with chemotherapy agents, cell count, combination index (CI); assay type: cell-based, human
[4] = test system: rat liver gene expression
[5] = rat liver, actein 35.7 mg/kg, 6 hours, vs control
[6] = rat liver, actein 35.7 mg/kg, 24 hours, vs control

C[C@H]1O[C@@H](O[C@H]2[C@@H](O)C[C@H](O[C@H]3[C@@H](O)C[C@H](O[C@H]4CC[C@@]5(C)[C@H](CC[C@@H]6[C@@H]5CC[C@]5(C)[C@@H](C7=CC(=O)OC7)CC[C@]65O)C4)O[C@@H]3C)O[C@@H]2C)C[C@H](O)[C@@H]1O [digitoxin]
therapeutic plasma concentration [1]: greater than 10 ng/ml and > 13 nM | percent inhibition of in vitro Na^+-K^+-ATPase activity (Na^+-K^+-ATPase): 35.2%

CC(=O)O[C@@H]1C[C@@]23C[C@@]24CC[C@H](O[C@@H]2OC[C@@H](O)[C@H](O)[C@H]2O)C(C)(C)[C@@H]4CC[C@H]3[C@]2(C)C[C@@H]3O[C@]4(C[C@@H](C)[C@@H]3[C@@]12C)O[C@H](O)[C@@]1(C)O[C@@H]41 [actein]
cyclin D1 promoter activity (cyclin D1 promoter; 20 μg/ml): 0.87 fold | cyclin D1 promoter activity (cyclin D1 promoter; 40 μg/ml): 0.093 fold | cells in G1 (MCF7 cells; 10 μg/ml, 24 h): 75% | cells in G1 (MCF7 cells; 10 μg/ml, 48 h): 77% | cells in G1 (MCF7 cells; 20 μg/ml, 24 h): 77% | apoptosis (sub G1 peak) (MCF7 cells; 20 μg/ml, 48 h): approximately 1.4% | cells in G1 (MCF7 cells; 20 μg/ml, 48 h): 87% | apoptosis (sub G1 peak) (MCF7 cells; 20 μg/ml, 72 h): 3.6% | cells in G1 (MCF7 cells; 30 μg/ml, 48 h): 82% | cells in G2/M (MCF7 cells; 30 μg/ml, 48 h): 12% | cells in G1 (MCF7 cells; 40 μg/ml, 24 h): 74% | cells in G1 (MCF7 cells; 40 μg/ml, 48 h): 79% | cells in G1 (MCF7 cells; 60 μg/ml, 48 h): 77% | cells in G2/M (MCF7 cells; 60 μg/ml, 48 h): 18% | cyclin D1 mRNA (RT-PCR) ([2]; 3 h, 20 μg/ml): 0.91 fold | cyclin D1 mRNA (RT-PCR) ([2]; 3 h, 40 μg/ml): 0.94 fold | cyclin D1 mRNA (RT-PCR) ([2]; 10 h, 20 μg/ml): 1.1 fold | cyclin D1 mRNA (RT-PCR) ([2]; 10 h, 40 μg/ml): 0.93 fold | cyclin D1 mRNA (RT-PCR) ([2]; 24 h, 20 μg/ml): 0.84 fold | cyclin D1 mRNA (RT-PCR) ([2]; 24 h, 40 μg/ml): 0.66 fold | number of genes significantly altered (B>0) ([3]; 6 hours): 0 | number of genes significantly altered (B>0) ([3]; 24 hours): 109 | Fold-change relative to control, BZRP, Microarray ([3]; 6 h): −0.12 | Fold-change relative to control, CCND1, Microarray ([3]; 6 h): 0.57 | Fold-change relative to control, CYP7A1, Microarray ([3]; 6 h): 0.045 | Fold-change relative to control, HMGCR, Microarray ([3]; 6 h): −0.61 | Fold-change relative to control, HMGCS1, Microarray ([3]; 6 h): −0.66 | Fold-change relative to control, HSD17B7, Microarray ([3]; 6 h): −0.99 | Fold-change relative to control, ID3, Microarray ([3]; 6 h): 0.19 | Fold-change relative to control, NQO1, Microarray ([3]; 6 h): −0.64 | Fold-change relative to control, S100A9, Microarray ([3]; 6 h): −0.64 | Fold-change relative to control, BZRP, Microarray ([3]; 24 h): 1.51 | Fold-change relative to control, CCND1, Microarray ([3]; 24 h): −2.30 | Fold-change relative to control, CYP7A1, Microarray ([3]; 24 h): 2.04 | Fold-change relative to control, HMGCR, Microarray ([3]; 24 h): 1.12 | Fold-change relative to control, HMGCS1, Microarray ([3]; 24 h): 1.11 | Fold-change relative to control, HSD17B7, Microarray ([3]; 24 h): 2.11 | Fold-change relative to control, ID3, Microarray ([3]; 24 h): −0.58 | Fold-change relative to control, NQO1, Microarray ([3]; 24 h): 1.45 | Fold-change relative to control, S100A9, Microarray ([3]; 24 h): 3.01 | NF-kB promoter activity (NF-κB promoter; 20 μg/ml): 1.59 fold | NF-kB promoter activity (NF-κB promoter; 40 μg/ml): 0.12 fold | number of viable cells, average (MDA-MB-453 cells; actein 1): 148202.7 | number of viable cells, average (MDA-MB-453 cells; actein 10): 106747.3 | number of viable cells, average (MDA-MB-453 cells; actein .1 (μg/ml), 96 h): 174798.3 | ATP synthase expression, fold-change (log) ([4]; actein 35.7 mg/kg, 6 hours): −0.05 | number of genes with significant change (p<0.05) in transcription level ([4]; actein 35.7 mg/kg, 6 hours): 297 | erythropoietin expression, fold-change (log) ([4]; actein 35.7 mg/kg, 6 hours, rat liver): −0.22 | C4BP expression, fold-change (log) ([4]; actein 35.7 mg/kg, 24 hours): 0.17 | CXCL1 expression, fold-change (log) ([4]; actein 35.7 mg/kg, 24 hours): 0.44 | FDPS expression, fold-change (log) ([4]; actein 35.7 mg/kg, 24 hours): 0.34 | HMGCS expression, fold-change (log) ([4]; actein 35.7 mg/kg, 24 hours): 0.36 | IPP expression, fold-change (log) ([4]; actein 35.7 mg/kg, 24 hours): 0.80 | S100A9 expression, fold-change (log) ([4]; actein 35.7 mg/kg, 24 hours): 0.79 | SCD1 expression, fold-change (log) ([4]; actein 35.7 mg/kg, 24 hours): −1.28 | number of genes with significant change (p<0.05) in transcription level ([4]; actein 35.7 mg/kg, 24 hours): 1335 | PPS, Hepatic inflammatory infiltrate, centrilobular signature ([4]; female, Sprague-Dawley, rat, in vivo, 6 h): 0.58 | PPS, Hepatic inflammatory infiltrate, early gene expression signature ([4]; female, Sprague-Dawley, rat, in vivo, 24 h): 0.56 | Fold-change (log) ATP5I (1387019_at) [4, 5]: −0.05* | Fold-change (log) EPO (1387308_at) [4, 5]: −0.22^† | Fold-change (log) ACOX1 (1367680_at) [4, 6]: −0.17* | Fold-change (log) C4BP, Complement component 4 binding protein, alpha (1369764_at) [4, 6]: 0.09* | Fold-change (log) C4BP, Complement component 4 binding protein, beta (1368695_at) [4, 6]: 0.17* | Fold-change (log) C5 (1383425_at) [4, 6]: 0.18* | Fold-change (log) CD44 (1387952_a_at) [4, 6]: 0.08* | Fold-change (log) CXCL1 (1387316_at) [4, 6]: 0.44* | Fold-change (log) FDPS (1367667_at) [4, 6]: 0.34* | Fold-change (log) HMGCS1 (1367932_at) [4, 6]: 0.36^† | Fold-change (log) IPP (1388872_at) [4, 6]: 0.80* | Fold-change (log) MG3PDH (1387670_at) [4, 6]: −0.38* | Fold-change (log) S100A9 (1387125_at) [4, 6]: 0.79* | Fold-change (log) SAP (1367804_at) [4, 6]: −0.04* | Fold-change (log) SCD1 (1370355_at) [4, 6]: −1.28*
